Tests used:
RBL-1 5-lipoxygenase = molecular target: T1, RBL-1 5-lipoxygenase (Rattus norvegicus, UniProt P12527); test: RBL-1 5-lipoxygenase screen; assay type: biochemical; details: 10,000g supernatant from RBL-1 cells, formation of 5-HETE and 5,12-diHETE from [1-14C] arachidonic acid, read-out: Percentage inhibition of RBL-1 5-lipoxygenase at 20µM
T1 construct: 5-Lipoxygenase enzyme was prepared as a 10,000g supernatant from RBL-1 cells; endogenous in cells; host or cells: RBL-1 cells (10,000g supernatant of homogenate)
T1 sequence (P12527 1-673): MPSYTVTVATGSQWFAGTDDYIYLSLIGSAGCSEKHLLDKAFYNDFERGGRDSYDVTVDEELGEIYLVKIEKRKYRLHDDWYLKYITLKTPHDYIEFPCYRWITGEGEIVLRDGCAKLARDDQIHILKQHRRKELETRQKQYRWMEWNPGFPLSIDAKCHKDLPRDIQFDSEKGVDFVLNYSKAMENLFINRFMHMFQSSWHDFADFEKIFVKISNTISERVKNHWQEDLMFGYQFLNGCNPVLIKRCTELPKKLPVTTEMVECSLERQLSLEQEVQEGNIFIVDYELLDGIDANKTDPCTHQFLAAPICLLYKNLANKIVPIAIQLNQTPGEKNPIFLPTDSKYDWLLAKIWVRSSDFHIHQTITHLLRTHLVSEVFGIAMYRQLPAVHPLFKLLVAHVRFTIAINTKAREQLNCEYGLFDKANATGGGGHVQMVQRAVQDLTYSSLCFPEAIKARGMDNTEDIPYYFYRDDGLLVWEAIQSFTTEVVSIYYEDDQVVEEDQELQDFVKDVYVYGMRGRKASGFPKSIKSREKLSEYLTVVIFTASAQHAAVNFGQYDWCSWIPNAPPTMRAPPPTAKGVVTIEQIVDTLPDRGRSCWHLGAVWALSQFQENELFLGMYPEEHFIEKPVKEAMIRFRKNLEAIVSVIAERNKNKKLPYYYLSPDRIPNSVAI
Procedure: 5-Lipoxygenase enzyme was prepared as a 10,000g supernatant from RBL-1 cells by the method of Jakschik (Jakschik, B.A., F.F. Sun, L.M.Lee, and M.M. Steinhoff, 1980, Biochem. Biophys. Res.Comm. 95 103). The 10,000g supernatant was diluted with homogenization buffer to the equivalent of 1.5 - 2.5 × 10⁷ cells. ml.⁻¹ and made 2mM with respect to CaCl₂. Aliquots of 0.5ml were then dispensed into tubes, and incubated at 29°C with 5µl ethanol or compound in ethanol at the desired concentration for 2min. Then [1-¹⁴C] arachidonic acid was added in buffer to give a final concentration of 6.3µM and 0.2µCi per incubation, and the reaction continued at 29°C for 2min. The reaction was terminated by adding 1ml of acetone and cooling on ice, 0.5ml of ice-cold saline and 100µl of 2N formic acid were added, and the mixture was extracted with 2 × 2ml of chloroform. The extract was stored under N₂ at -20°C until analysis by chromatography. Activity was measured as the percentage of total radioactivity found in 5-HETE and 5,12-diHETE, and inhibition calculated as the decrease in formation of the sum of these two species in compound-treated incubates relative to control incubations.

[1] = tested on: passive peritoneal anaphylaxis; test: Rat passive peritoneal anaphylaxis (PPA); assay type: in vivo; details: i.p., final concentration 2×10⁻⁴M, contact time 2½ minutes
Procedure: The method is essentially similar to that described previously by Ross et al (Ross, Janet W., Smith, H. and Spicer, Barbara A. Increased vascular permeability during passive peritoneal anaphylaxis in the rat. Int. Arch. Allergy appl. Immun. 51, 226, 1976.)
Charles River Sprague Dawley male rats of 225-275 g and Dunkin Hartley male white guinea pigs of 250-300 g were used.
Charles River Sprague Dawley male rats of 225 - 275 g were given intraperitoneal injections of 0.5 ml of either Bordetella pertussis vaccine (4 × 10¹⁰ organisms/ml; Burroughs Wellcome, London) or Pertussis vaccine absorbed (not less than 41.u. B. pertussis antigen with aluminium hydroxide; The Lister Institute Elstree, England), and subcutaneous injections of 0.5ml of an emulsion of 100 mg of ovalbumin (chicken egg albumin; crystallised and lyophilised, grade V, Sigma, London) in 2ml of isotonic saline and 3ml of incomplete Freund's adjuvant. The rats were bled by cardiac puncture on day 18, the blood was pooled and the serum separated, stored at -20°C and thawed only once before use. The serum produced 72 hour passive cutaneous anaphylaxis activity in recipient rats to a dilution of 1:64 to 1:32 which was decreased to a dilution of less than 1:2 by heating at 56°C for 4 hours.
Rats were given intraperitoneal injections of 2 ml of a 1:5 dilution of the rat anti-serum in isotonic saline. Two hours later 0.3ml of 5% solution of Pontamine Sky Blue (Raymond A. Lamb, London) in isotonic saline was injected intraveneously, followed by an intraperitoneal injection of the test compound in 1 ml of saline; (control rats received 1 ml of saline); followed 2.5 minutes later by an intraperitoneal injection of 5 ml of a Tyrode solution containing 50µg/ml heparin and 0.4 mg/ml of ovalbumin. The concentrations of the compounds were quoted as that in the 6 ml of fluid injected intraperitoneally. […]
The optical densities (OD) of the supernatants which were not contaminated with blood were determined immediately at 625nm. […]

Row | inhibition at 20 µM (RBL-1 5-lipoxygenase) [%] | SMILES | Percentage inhibition SRS-A ([1]; SRS-A in peritoneal fluid assayed on guinea pig ileum) | Percentage inhibition Dye ([1]; dye in peritoneal fluid (OD 625nm)) | Percentage inhibition Histamine ([1]; histamine in peritoneal fluid)
1 | 89 | Cc1ccc(O)c2c1nnn2Cc1ccccc1 [Example 1, 3-Benzyl-4-hydroxy-7-methylbenzotriazole] | – | – | –
2 | 81 | Cc1ccc(O)c2nn(Cc3ccccc3)nc12 [Example 2, 2-Benzyl-4-hydroxy-7-methylbenzotriazole] | 49 | 30 | 45

— patent EP0284686A1, “Condensed triazoles, their preparation and their use as medicines” (BEECHAM GROUP PLC, priority 1986, dated 1988)
